US10584157B2 (priority 2015, dated 2020)
Values joined by “and” are separate entries in the source; they are usually repeats but may differ in a detail not shown here. Identical values can stand only once. “Also recorded” adds a separate entry of the source. Like-named read-outs stand apart in the source and are kept apart here. Square brackets hold non-standard residues; d marks the D form. Ends that are not written are not given here. Peptide text beside a SMILES is read from it.

Assays:
SEB = SEB (Staphylococcus aureus, UniProt P01552); experiment: biochemical; type: binding, S. aureus; settings: for kon: read-out: Ka (1/Ms), association rate; for koff: read-out: Kd (1/s), dissociation rate
SEB, sequence (P01552 28-266 limits assumed): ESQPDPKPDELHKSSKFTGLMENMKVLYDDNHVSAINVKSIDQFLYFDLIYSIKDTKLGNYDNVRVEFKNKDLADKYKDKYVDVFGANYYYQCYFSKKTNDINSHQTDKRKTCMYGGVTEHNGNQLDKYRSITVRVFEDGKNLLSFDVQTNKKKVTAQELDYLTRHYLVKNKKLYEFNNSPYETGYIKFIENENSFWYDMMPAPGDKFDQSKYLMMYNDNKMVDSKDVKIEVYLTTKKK

TSST-1 = TSST-1 (Staphylococcus aureus, UniProt P06886); experiment: biochemical; type: binding, S. aureus; settings: for kon: read-out: Ka (1/Ms), association rate; for koff: read-out: Kd (1/s), dissociation rate
TSST-1, sequence (P06886 41-234 limits assumed): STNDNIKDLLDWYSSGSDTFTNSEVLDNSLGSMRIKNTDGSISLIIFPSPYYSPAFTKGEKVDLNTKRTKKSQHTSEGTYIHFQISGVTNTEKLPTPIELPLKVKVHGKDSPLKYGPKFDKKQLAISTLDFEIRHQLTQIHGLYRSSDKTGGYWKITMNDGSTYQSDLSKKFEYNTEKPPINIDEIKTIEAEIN

SMEZ = type: binding, Streptococcus pyogenes
PBMC induced with SEB = type: cell-based, human
cell-surface CD28 [1] = target: cell-surface CD28 (Staphylococcus aureus, UniProt P01552); settings: cited from earlier work
cell-surface CD28, sequence (P01552 28-266 limits assumed): as the sequence (P01552 28-266 limits assumed) above
cell-surface CD28 (Staphylococcus aureus, UniProt P01552), sequence (P01552 28-266 limits assumed): as above

cell-surface B7-2 = type: binding, human
cell-surface B7-2, sequence (P01552 28-266 limits assumed): as above

cell-surface CD28 [2] = type: binding
[3] = test system: PBMC induced with αCD3/αCD28; type: cell-based, human
[4] = test system: SEB lethality in D-galactosamine-sensitized mice; type: in vivo, BALB/c mice
[5] = test system: PBMC induced with E. coli LPS; type: cell-based, human
PBMC induced with αCD3 = type: cell-based, human

Q: With `CSCC[C@H](NC(=O)[C@H](Cc1ccc(O)cc1)NC(=O)[C@H](CCCCN)NC(=O)[C@H](CO)NC(=O)[C@H](Cc1c[nH]cn1)NC(=O)[C@@H](NC(=O)[C@H](CO)NC(=O)[C@H](CC(=O)O)NC(=O)[C@H](Cc1ccccc1)NC(=O)[C@H](CCCCN)NC(=O)[C@@H](N)CCC(=O)O)C(C)C)C(=O)O` [pB2-4] (H-EKFDSVHSKYM-OH; N-terminus and C-terminus assumed) as the compound, how does the kon (SEB) read?
A: 413 M⁻¹ s⁻¹

Q: And the koff (SEB)?
A: 0.000958 s⁻¹

Q: What about the kon (TSST-1) of the same compound?
A: 4080 M⁻¹ s⁻¹

Q: And the koff (TSST-1)?
A: 0.0277 s⁻¹

Q: What about the “Ka (1/Ms), association rate” value (SMEZ) of the same compound?
A: 3,020 1/Ms

Q: What about the “Kd (1/s), dissociation rate” value (SMEZ) of the same compound?
A: 0.00293 s⁻¹

Q: What about the “inhibition of SEB-mediated induction of IFN-γ” value (PBMC induced with SEB) of the same compound?
A: only partially

Q: What about the “inhibition of SEB-mediated induction of IL-2” value (PBMC induced with SEB) of the same compound?
A: only partially

Q: And the “inhibition of SEB-mediated induction of TNF-α” value (PBMC induced with SEB)?
A: only partially

Q: What does the source list for `CC(C)C[C@H](NC(=O)[C@@H](NC(=O)[C@H](Cc1c[nH]c2ccccc12)NC(=O)[C@H](CO)NC(=O)[C@H](CC(=O)O)NC(=O)[C@H](CO)NC(=O)[C@@H](N)CC(=O)O)[C@@H](C)O)C(=O)N[C@@H](CCCNC(=N)N)C(=O)O` [pB2-6] (H-DSDSWTLR-OH; N-terminus and C-terminus assumed)?
A: kon (SEB): 491 M⁻¹ s⁻¹; koff (SEB): 0.0019 s⁻¹; kon (TSST-1): 2530 M⁻¹ s⁻¹; koff (TSST-1): 0.00304 s⁻¹; Ka (1/Ms), association rate (SMEZ): 1,590 1/Ms; Kd (SMEZ): 1790 nM; Kd (1/s), dissociation rate (SMEZ): 0.00286 s⁻¹; inhibition of SEB-mediated induction of IFN-γ (PBMC induced with SEB): only partially; inhibition of SEB-mediated induction of IL-2 (PBMC induced with SEB): only partially; inhibition of SEB-mediated induction of TNF-α (PBMC induced with SEB): only partially

Q: Which “blocking of binding of SEB to cell-surface CD28” value (shortened to “blocking of binding of SEB”) (cell-surface CD28 [1]) does the source give for HVKGKHLCP [p1TA, reference compound] here?
A: abrogated

Q: And the “inhibition of binding of SEB to cells expressing B7-2” value (“inhibition of binding of SEB” below) (cell-surface B7-2)?
A: equally inhibited

Q: And the “blocking of binding of SEB” value (cell-surface CD28 [2])?
A: capable of blocking

Q: What does the source list for MGRTSFDSDS [pB2-7]?
A: attenuation of IFN-γ expression induced by αCD3/αCD28 [3]: significant attenuation; attenuation of TNF-α expression induced by αCD3/αCD28 [3]: significant attenuation; inhibition of SEB-mediated induction of IFN-γ (PBMC induced with SEB): inhibited; inhibition of SEB-mediated induction of IL-2 (PBMC induced with SEB): inhibited; inhibition of SEB-mediated induction of IL-10 (PBMC induced with SEB): did not inhibit; inhibition of SEB-mediated induction of TNF-α (PBMC induced with SEB): inhibited

Q: With SPMLVAYD [p2TA, reference compound] as the compound, how does the “blocking of binding of SEB” value (cell-surface CD28 [1]) read?
A: abrogated

Q: What about the “inhibition of binding of SEB” value (cell-surface B7-2) of the same compound?
A: equally inhibited

Q: What about the “blocking of binding of SEB” value (cell-surface CD28 [2]) of the same compound?
A: capable of blocking

Q: Which “inhibition of SEB-mediated induction of IFN-γ” value (PBMC induced with SEB) does the source give for [dA]DLPCQFANSQN[dA] [D-Ala-pB2-2] here?
A: failed to inhibit

Q: And the “inhibition of binding of SEB” value (cell-surface B7-2)?
A: did not inhibit binding

Q: What does the source list for [dA]DSDSWTLR[dA] [D-Ala-pB2-6]?
A: survival of SEB challenge (mice surviving/group) ([4]; n=5): 5/5; effect on SEB-mediated induction of IL-10 (PBMC induced with SEB): resistant; inhibition of SEB-mediated induction of IFN-γ (PBMC induced with SEB): strongly inhibitory; inhibition of SEB-mediated induction of IL-2 (PBMC induced with SEB): inhibited; inhibition of SEB-mediated induction of TNF-α (PBMC induced with SEB): inhibited; inhibition of binding of SEB to cells expressing B7-2 (cell-surface B7-2): effectively blocked; blocking of binding of SEB to cell-surface CD28 (cell-surface CD28 [2]): capable of blocking; attenuation of LPS-mediated induction of TNF-α [5]: sensitive to attenuation; also recorded: reduced

Q: Which “inhibition of CD28 signaling, IFN-γ induced by αCD3/αCD28” value [3] does the source give for [dA]EKFDSVHSKYM[dA] [D-Ala-pB2-4] here?
A: inhibition

Q: And the “inhibition of CD28 signaling, TNF-α induced by αCD3/αCD28” value [3]?
A: inhibition

Q: What about the “survival of SEB challenge (mice surviving/group)” value ([4]; n=5) of the same compound?
A: 4/5

Q: What about the “effect on SEB-mediated induction of IL-10” value (PBMC induced with SEB) of the same compound?
A: resistant

Q: What about the “inhibition of SEB-mediated induction of IFN-γ” value (PBMC induced with SEB) of the same compound?
A: strongly inhibitory

Q: What about the “inhibition of SEB-mediated induction of IL-2” value (PBMC induced with SEB) of the same compound?
A: inhibited

Q: What about the “inhibition of SEB-mediated induction of TNF-α” value (PBMC induced with SEB) of the same compound?
A: inhibited

Q: What about the “inhibition of binding of SEB” value (cell-surface B7-2) of the same compound?
A: effectively blocked

Q: And the “blocking of binding of SEB” value (cell-surface CD28 [2])?
A: capable of blocking

Q: And the “attenuation of LPS-mediated induction of TNF-α” value [5]?
A: sensitive to attenuation; also recorded: reduced

Q: For [dA]HHKKPTGMIR[dA] [D-Ala-pB2-3], which “inhibition of SEB-mediated induction of IFN-γ” value (PBMC induced with SEB) is on record?
A: failed to inhibit

Q: Which “survival of SEB challenge (mice surviving/group)” value ([4]; n=6) does the source give for [dA]MGRTSFDSDS[dA] [D-Ala-pB2-7] here?
A: protected and 6/6

Q: What about the “induction of an IFN-γ response by the peptide alone” value (PBMC induced with αCD3) of the same compound?
A: at neither concentration

Q: What about the “inhibition of induction of IFN-γ by αCD3” value (PBMC induced with αCD3) of the same compound?
A: did not inhibit

Q: What about the “inhibition of binding of SEB” value (cell-surface B7-2) of the same compound?
A: likewise blocked

Q: What about the “blocking of binding of SEB” value (cell-surface CD28 [2]) of the same compound?
A: capable of blocking

Q: And the “attenuation of LPS-mediated induction of TNF-α” value [5]?
A: reduced

Q: Which “inhibition of SEB-mediated induction of IFN-γ” value (PBMC induced with SEB) does the source give for [dA]MLKIQAY[dA] [D-Ala-pB2-5] here?
A: failed to inhibit
